Experimental data: patent publication US20210285933A1, “HIGH THROUGHPUT DRUG SCREENING OF CANCER STEM CELLS” (UNIVERSITY OF WASHINGTON, priority 2018, published 2021)
“Also recorded” adds a separate entry of the source. Residues, ends and D or L forms follow the SMILES beside them. *: point of attachment. Cbz = O=C(OCc1ccccc1)*

Key:
[1] = tested on: leukemia stem cells (LSCs) CD34+CD38low or negCD123+ from AML patient samples; assay: High throughput functional drug screen (72-hour exposure, CellTiter Glo viability) on FACS sorted LSCs; format: cell-based, human; parameters: AUC Stem Mean: unit not given here; conditions: for LSC drug response in dose response curves: FIG. 1C; for Effectiveness vs. LSCs (AUCstem mean < mitomycin C AUCblast mean, p<0.1): aggregate viability data of patient samples, in vitro 72 h; for AUC Stem Mean: mean area under dose response curve across patient samples, 72-hour exposure, 8 concentrations; for mean IC50 of LSC samples compared to predicted plasma concentration: FIG. 9, expected plasma concentration in patients with typical dosing
Method: (§1) Isolation of blasts and FACS isolation of LSCs: CD34+ blasts were enriched to >90% using immunomagnetic beads (QuadroMACS). Fluorescence activated cell sorting was performed in a biosafety cabinet enclosed FACS-Aria II (Becton-Dickinson; San Jose, Calif.) housed in the University of Washington Core Cell Analysis Facility where voltage was standardized and calibration was performed daily. Mononuclear cells were stained with allophycocyanin H7 (APC-H7) conjugated anti-human CD45, allophycocyanin (APC) conjugated anti-human CD34, phycoerythrin-Cy7 (PE-Cy7) conjugated anti-human CD38 and phycoerythrin (PE) conjugated anti-human CD123 (all from BD Biosciences Pharmingen, San Jose, Calif.). Initially a blast gate was applied for forward scatter vs. side scatter, then sequential gates for CD45 vs. side scatter, CD34+ and CD38^low or neg, then CD123+ cells to yield the LSCs. The CD38low population was defined by CD38 above the isotype control and below that of mature precursors. Flow cytometry data analysis was performed using FlowJo software (Tree Star, Inc. Ashland, Oreg.).
(§2) After overnight incubation on matrix protein coated 384 well plates, drugs were added to each well using a CyBio Well Vario liquid handler (Amalytik Jena). The cell populations were analyzed for survival after a 72-hour exposure to 8 customized drug concentrations (within the range of 5 pM to 100 microM) of each drug spanning 4 logs. Post exposure viability was measured using CellTiter Glo luminescent reagent (Promega, Madison, Wis.) per manufacturer protocol, then the plates were analyzed with the Envision Multi-label plate reader (Perkin Elmer, Waltham, Mass.). XLFit software (IDBS, Guildford, Surrey, United Kingdom) was used to analyze the data and generate dose response curves based on standard 4-parameter logistic fit. For each plate, data were normalized to DMSO 100% viability and blank controls.
(§3) Area under the curve (AUC) was calculated for each dose response curve. For the 4 patient samples, two-sample two-tailed t-tests were used for group comparisons of AUC values to determine drug specificity and efficacy.
(§4) Drug specificity was defined by group comparisons between AUCs for each drug and cell type across patient samples. […] Group comparisons for categorical variable were completed using Fisher's exact test.

[2] = tested on: AML blasts vs. leukemia stem cells (LSCs); assay: Drug specificity: group comparison of AUCs, blasts vs. LSCs across patient samples; format: cell-based, human; conditions: aggregate viability data of patient samples; pairwise p-value<0.1
Method: as §2, §3, §4

pediatric AML blasts = conditions: literature; cited from earlier work
AML = conditions: literature; cited from earlier work
LSCs = conditions: literature; cited from earlier work
[3] = tested on: AML blasts (CD45dim, side scatter low) from patient samples; assay: High throughput functional drug screen (72-hour exposure, CellTiter Glo viability) on AML blasts; format: cell-based, human; conditions: for mean IC50 of blast samples compared to predicted plasma concentration: FIG. 9, expected plasma concentration in patients with typical dosing
Method: as §1
Functional Drug Screen: A CLIA-validated in vitro sensitivity assay was performed that included both FDA approved and investigational drugs. ‘Oncopane11’ comprised of 153 drugs was used for HTS of patient samples and an earlier generation panel of 160 drugs was used for HTS of the NOD/SCID IL2R γc−/− mouse engraftment sample. As detailed above, for the 4 patient samples, using FACS, the blast population (CD45^dim, side scatter^low) was confirmed to be >90% of the viable white blood cell fraction, and the LSC subpopulation (CD34^+CD38^low or negCD123^+) was isolated. For the NOD/SCID IL2R γc−/− mouse engraftment sample, both the pre-engraftment AML blasts (>90% blasts by FACs) and splenic mononuclear cells (91% hCD45+ engrafting subclone as above) were assayed. After overnight incubation on matrix protein coated 384 well plates, drugs were added to each well using a CyBio Well Vario liquid handler (Amalytik Jena). The cell populations were analyzed for survival after a 72-hour exposure to 8 customized drug concentrations (within the range of 5 pM to 100 microM) of each drug spanning 4 logs. Post exposure viability was measured using CellTiter Glo luminescent reagent (Promega, Madison, Wis.) per manufacturer protocol, then the plates were analyzed with the Envision Multi-label plate reader (Perkin Elmer, Waltham, Mass.). XLFit software (IDBS, Guildford, Surrey, United Kingdom) was used to analyze the data and generate dose response curves based on standard 4-parameter logistic fit. For each plate, data were normalized to DMSO 100% viability and blank controls.
as §3
Drug specificity was defined by group comparisons between AUCs for each drug and cell type across patient samples. For blast specific drugs AUCstem mean>AUCblast mean and for LSC specific drugs AUC^stem mean<AUC^blast mean (p<0.1). […] This approach was selected to detect differences within the small sample size, while still maintaining statistical stringency and capturing trends observed in the data set. Group comparisons for categorical variable were completed using Fisher's exact test.

SMILES | Effectiveness vs. LSCs (AUCstem mean < mitomycin C AUCblast mean, p<0.1) [1] | Drug specificity (blast specific: AUCstem mean>AUCblast mean; LSC specific: AUCstem mean<AUCblast mean) [2] | AUC Stem Mean [1] | also measured
Cc1csc(-c2nnc(Nc3ccc(Oc4ncccc4-c4ccnc(N)n4)cc3)c3ccccc23)c1 [AMG-900] |  |  |  | LSC drug response in dose response curves ([1]; patient sample on the right): sensitive
Nc1ncn([C@@H]2O[C@H](CO)[C@@H](O)[C@H]2O)c(=O)n1 [Azacitidine] | did not result in appreciable cytotoxicity | LSC specific; also recorded: LSC-specific |  | 
CO[C@H]1C(=O)[C@]2(C)[C@@H](OC)C[C@H]3OC[C@@]3(OC(C)=O)[C@H]2[C@H](OC(=O)c2ccccc2)[C@]2(O)C[C@H](OC(=O)[C@H](O)[C@@H](NC(=O)OC(C)(C)C)c3ccccc3)C(C)=C1C2(C)C [Cabazitaxel] | effective |  | 0.0031 | effect vs. pediatric AML blasts in vitro (pediatric AML blasts): effective
CC(C)C[C@H](NC(=O)[C@H](CCc1ccccc1)NC(=O)CN1CCOCC1)C(=O)N[C@@H](Cc1ccccc1)C(=O)N[C@@H](CC(C)C)C(=O)[C@@]1(C)CO1 [Carfilzomib] | not effective |  |  | clinical effect in AML patients (AML): minimal anti-leukemic effects; anti-LSC effect in vitro in prior studies (LSCs): reduced LSCs in vitro
Nc1nc(Cl)nc2c1ncn2[C@H]1C[C@H](O)[C@@H](CO)O1 [Cladribine] |  | blast cell specific; also recorded: blast cell-specific |  | mean IC50 of blast samples compared to predicted plasma concentration [3]: less than predicted plasma concentration; mean IC50 of LSC samples compared to predicted plasma concentration [1]: greater than the predicted plasma concentration
CC1(COc2ccc3c(c2)ncn3-c2ccc3cccc(N4CCC(N)CC4)c3n2)COC1 [Crenolanib] |  |  | 0.0054 | 
Nc1ccn([C@@H]2O[C@H](CO)[C@@H](O)[C@@H]2O)c(=O)n1 [Cytarabine] |  | blast cell specific; also recorded: blast cell-specific |  | mean IC50 of blast samples compared to predicted plasma concentration [3]: less than predicted plasma concentration; LSC drug response in dose response curves ([1]; patient sample on the left): resistant; LSC drug response in dose response curves ([1]; patient sample on the right): resistant; mean IC50 of LSC samples compared to predicted plasma concentration [1]: greater than the predicted plasma concentration
CCc1cnn2c(NCc3ccc[n+]([O-])c3)cc(N3CCCC[C@H]3CCO)nc12 [Dinaciclib] |  |  | 0.048 | 
COc1cc([C@@H]2c3cc4c(cc3[C@@H](O[C@@H]3O[C@@H]5CO[C@@H](C)O[C@H]5[C@H](O)[C@H]3O)[C@H]3COC(=O)[C@H]23)OCO4)cc(OC)c1O [Etoposide] |  | blast cell specific; also recorded: blast cell-specific |  | mean IC50 of blast samples compared to predicted plasma concentration [3]: less than predicted plasma concentration; mean IC50 of LSC samples compared to predicted plasma concentration [1]: greater than the predicted plasma concentration
CC(=O)[C@]1(O)Cc2c(O)c3c(c(O)c2[C@@H](O[C@H]2C[C@H](N)[C@H](O)[C@H](C)O2)C1)C(=O)c1ccccc1C3=O [Idarubicin] |  | blast cell specific; also recorded: blast cell-specific |  | mean IC50 of blast samples compared to predicted plasma concentration [3]: less than predicted plasma concentration; LSC drug response in dose response curves ([1]; patient sample on the left): resistant; mean IC50 of LSC samples compared to predicted plasma concentration [1]: greater than the predicted plasma concentration
CC(C)C[C@@H](C=O)NC(=O)[C@H](CC(C)C)NC(=O)[C@H](CC(C)C)NC(=O)OCc1ccccc1 [MG-132] (Cbz-Leu-Leu-Leu-aldehyde) |  |  | 0.0039 | 
CO[C@@]12[C@H](COC(N)=O)C3=C(C(=O)C(C)=C(N)C3=O)N1C[C@@H]1N[C@@H]12 [Mitomycin C] |  | blast cell specific |  | Blast response to mitomycin C in dose response curves ([3]; FIG. 3, both patient samples): sensitive; LSC response to mitomycin C in dose response curves ([1]; FIG. 3, both patient samples): resistant
Nc1ccccc1NC(=O)c1ccc(CNc2nccc(-c3cccnc3)n2)cc1 [Mocetinostat] | LSC effective |  | 0.0029 | 
Cc1ccc([N+](=O)[O-])cc1S(=O)(=O)N(C)/N=C/c1cnc2ccc(Br)cn12 [PIK-75] | effective |  | 0.0041 | 
Cc1ccc(C(=O)Nc2ccc(CN3CCN(C)CC3)c(C(F)(F)F)c2)cc1C#Cc1cnc2cccnn12 [Ponatinib] |  |  | 0.00085 | 
C/C=C1\NC(=O)[C@H]2CSSCC/C=C/[C@H](CC(=O)N[C@H](C(C)C)C(=O)N2)OC(=O)[C@H](C(C)C)NC1=O [Romidepsin] |  |  | 0.00041 | 
CN1CCC(CNc2ccc3ncc(-c4cccc(OC(F)(F)F)c4)n3n2)CC1 [SGI-1776] |  |  | 0.00076 | 
CNC(=O)c1cc(Oc2ccc(NC(=O)Nc3ccc(Cl)c(C(F)(F)F)c3)cc2)ccn1 [Sorafenib] | effectively killed; also recorded: effective | LSC specific; also recorded: LSC-specific | 0.0045 | 
CCN(CC)CCNC(=O)c1c(C)[nH]c(/C=C2\C(=O)Nc3ccc(F)cc32)c1C [Sunitinib] |  |  | 0.00039 | 
COCCn1c2c([n+](Cc3cnccn3)c1C)C(=O)c1ccccc1C2=O [YM-155] | effective |  | 0.00089 | LSC drug response in dose response curves ([1]; patient sample on the left): sensitive
CC(C)C[C@H](NC(=O)[C@H](Cc1ccccc1)NC(=O)c1cnccn1)B(O)O [bortezomib] | ineffective |  |  | 
Nc1nc(Cl)nc2c1ncn2[C@@H]1O[C@H](CO)[C@@H](O)[C@@H]1F [clofarabine] |  | trended towards blast cell specific; also recorded: trended towards blast cell-specific |  | mean IC50 of blast samples compared to predicted plasma concentration [3]: less than predicted plasma concentration; mean IC50 of LSC samples compared to predicted plasma concentration [1]: greater than the predicted plasma concentration
COc1cccc2c1C(=O)c1c(O)c3c(c(O)c1C2=O)C[C@@](O)(C(C)=O)C[C@@H]3O[C@H]1C[C@H](N)[C@H](O)[C@H](C)O1 [daunorubicin] |  | non-specific |  | mean IC50 of blast samples compared to predicted plasma concentration [3]: opposite pattern; LSC drug response in dose response curves ([1]; patient sample on the right): resistant; mean IC50 of LSC samples compared to predicted plasma concentration [1]: opposite pattern
Nc1ccn([C@@H]2O[C@H](CO)[C@@H](O)C2(F)F)c(=O)n1 [gemcitabine] |  |  |  | LSC drug response in dose response curves ([1]; patient sample on the left): sensitive
CC(C)C[C@H](NC(=O)CNC(=O)c1cc(Cl)ccc1Cl)B(O)O [ixazomib] |  |  |  | anti-LSC effect in vitro in prior studies (LSCs): anti-LSC effect was shown in vitro
O=C1c2c(O)ccc(O)c2C(=O)c2c(NCCNCCO)ccc(NCCNCCO)c21 [mitoxantrone] |  | trended towards blast cell specific; also recorded: trended towards blast cell-specific |  | mean IC50 of blast samples compared to predicted plasma concentration [3]: less than predicted plasma concentration; mean IC50 of LSC samples compared to predicted plasma concentration [1]: less than predicted plasma concentration
